Experimental findings from patent US11325913B2, “Compounds and methods for the treatment of malaria” (THE BROAD INSTITUTE, INC., priority 2013, dated 2022) are described below.

Molecules are shown by their SMILES.

Experiment [1] concerns P. berghei (ANKA GFP-luc) blood stage parasites. Briefly: Single dose in vivo efficacy, P. berghei blood stage, bioluminescence imaging. The arrangement: species or system CD-1 mice. Particulars: single 100 mg/kg dose. As for the experimental part:
CD-1 mice (female, 6-7-week-old) were inoculated with 1×10^6 P. berghei (ANKA GFP-luc) blood stage parasites intravenously 24 hours before treatment and compounds were administered as a single 100 or 50 mg/kg dose orally at 0 hour. Parasitemia was monitored by the In vivo Imaging System (IVIS 100, Xenogen; Caliper Life Science) to acquire the bioluminescence signal. Animals with parasitemia exceeding 25% were euthanized.
Infection proceeds rapidly in untreated mice (control), which were euthanized around day 6 of the study. Compound 37 and 68 were tested at different times; thus the artesunate control (ART) is shown for each compound. […] All images are normalized to the same color scale.

A further experiment relates to P. falciparum Dd2. Briefly: Activity against the Dd2 strain of P. falciparum (SYBR Green I, 72 h). The class given is cell-based. Particulars: P. falciparum Dd2, 72 h incubation. In a few lines: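 Parasites in human RBCs at 1% parasitemia and 1.0% hematocrit, exposed to compounds (0.125% DMSO) for 72 h at 37°C under 93% N2/4% CO2/3% O2. SYBR Green I in saponin/Triton lysis buffer added, 24 h staining, fluorescence read at 485/530 nm. EC50 derived against 20 μM mefloquine background and DMSO baseline.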

Where [2] appears, read: Plasmodium falciparum, DD2, 72 h.

Consider `C[C@H]1[C@H](OC(=O)CCC(=O)O)O[C@@H]2O[C@@]3(C)CC[C@H]4[C@H](C)CC[C@@H]1[C@@]24OO3` [ART, artesunate, reference compound], for which, in experiment [1], the “effect on parasites” value is on record as “rapid suppression of parasites, but, due to its short half-life, the parasites re-emerge quickly”.
By EC50 is commonly meant the midpoint of the concentration-response curve. As for `COc1ccc(C#Cc2ccc([C@@H]3[C@@H](CO)N4CCCCN(C(=O)Nc5ccccc5F)C[C@H]34)cc2)cc1` [Compound 18, (8S,9S,10S)-N-(2-fluorophenyl)-10-(hydroxymethyl)-9-(4-((4-methoxyphenyl)ethynyl)phenyl)-1,6-diazabicyclo[6.2.0] decane-6-carboxamide], in the experiment with P. falciparum Dd2 (setting [2]), the concentration for a half-maximal effect (EC50) amounted to 800 nM.
Compound `CNC[C@@H]1[C@H](c2ccc(C#Cc3ccccc3)cc2)[C@@H]2CN(C(=O)Nc3ccc(OC)cc3)CCCCN12` [Compound 61, (8R,9S,10S)-N-(4-methoxyphenyl)-10-[(methylamino)methyl]-9-[4-(2-phenylethynyl)phenyl]-1,6-diazabicyclo[6.2.0] decane-6-carboxamide] returned an EC50 in the experiment with P. falciparum Dd2 (setting [2]) of 47 nM.
For `COc1ccc(NC(=O)N2CCCCN3[C@H](CO)[C@H](c4ccc(-c5ccccc5F)cc4)[C@@H]3C2)cc1` [Compound 46, (8R,9R,10S)-9-[4-(2-fluorophenyl)phenyl]-10-(hydroxymethyl)-N-(4-methoxyphenyl)-1,6-diazabicyclo[6.2.0] decane-6-carboxamide], in the experiment with P. falciparum Dd2 (setting [2]), the response was half-maximal at 17800 nM (EC50).
In the case of `O=C(Nc1ccc(F)cc1)N1CCCCN2[C@H](CO)[C@H](c3ccc(C#Cc4ccccc4)cc3)[C@@H]2C1` [Compound 11, (8R,9R,10S)-N-(4-fluorophenyl)-10-(hydroxymethyl)-9-(4-(phenylethynyl)phenyl)-1,6-diazabicyclo[6.2.0] decane-6-carboxamide], in the experiment on P. falciparum Dd2, the 50% effective concentration (EC50) stood at 17 nM.
Turning to `COc1ccc(NC(=O)N2CCCCN3[C@H](CO)[C@H](c4ccc(-c5ccn(-c6ccccc6)c5)cc4)[C@@H]3C2)cc1` [Compound 66, (8R,9R,10S)-10-(hydroxymethyl)-N-(4-methoxyphenyl)-9-[4-(1-phenyl-1H-pyrrol-3-yl)phenyl]-1,6-diazabicyclo[6.2.0] decane-6-carboxamide], in the experiment with P. falciparum Dd2 (setting [2]), the EC50 is 1310 nM.
In the experiment with P. falciparum Dd2 (setting [2]), `COc1ccc(NC(=O)N2CCCCN3[C@H](CO)[C@H](c4ccc(C#Cc5ccccn5)cc4)[C@@H]3C2)cc1` [Compound 4, (8R,9R,10S)-10-(hydroxymethyl)-N-(4-methoxyphenyl)-9-(4-(pyridin-2-ylethynyl)phenyl)-1,6-diazabicyclo[6.2.0] decane-6-carboxamide] came in with an EC50 of 131 nM.
`COc1ccc(C#Cc2ccc([C@@H]3[C@H](CO)N4CCCCN(C(=O)Nc5ccccc5F)C[C@@H]34)cc2)cc1` [Compound 29, (8R,9S,10R)-N-(2-fluorophenyl)-10-(hydroxymethyl)-9-(4-((4-methoxyphenyl)ethynyl)phenyl)-1,6-diazabicyclo[6.2.0] decane-6-carboxamide] came in with an EC50 with P. falciparum Dd2 (setting [2]) of 898 nM. This EC50 lies about 6.9-fold higher than the previous one.
Still for that read-out and setting: as for `COc1ccc(NC(=O)N2CCCCN3[C@@H](CO)[C@H](c4ccc(C#Cc5ccccc5)cc4)[C@@H]3C2)cc1` [Compound 52, (8R,9R,10R)-10-(hydroxymethyl)-N-(4-methoxyphenyl)-9-[4-(2-phenylethynyl)phenyl]-1,6-diazabicyclo[6.2.0] decane-6-carboxamide], the figure is 17 nM; as for `COc1ccc(NC(=O)N2CCCCN3[C@H](CO)[C@H](c4ccc(-c5ccn(-c6ccccc6)n5)cc4)[C@@H]3C2)cc1` [Compound 77, (8R,9R,10S)-10-(hydroxymethyl)-N-(4-methoxyphenyl)-9-[4-(1-phenyl-1H-pyrazol-3-yl)phenyl]-1,6-diazabicyclo[6.2.0] decane-6-carboxamide], 4890 nM; as for `COc1ccc(NC(=O)N2CCCCN3[C@H](CN4CCOCC4)[C@H](c4ccc(C#Cc5ccccc5)cc4)[C@@H]3C2)cc1` [Compound 55, (8R,9S,10S)-N-(4-methoxyphenyl)-10-(morpholin-4-ylmethyl)-9-[4-(2-phenylethynyl)phenyl]-1,6-diazabicyclo[6.2.0] decane-6-carboxamide], 5 nM.
The same measure, in the same setting: as for `COc1ccc(NC(=O)N2CCCCN3[C@H](CO)[C@H](c4ccc(C#Cc5ccccc5F)cc4)[C@@H]3C2)cc1` [Compound 72, (8R,9R,10S)-9-{4-[2-(2-fluorophenyl)ethynyl]phenyl}-10-(hydroxymethyl)-N-(4-methoxyphenyl)-1,6-diazabicyclo[6.2.0] decane-6-carboxamide], the figure is 17 nM.
As to `CNC[C@H]1[C@H](c2ccc(C#Cc3ccccc3)cc2)[C@@H]2CN(C(=O)Nc3ccc(OC)cc3)CCCCN12` [Compound 88, (8R,9S,10R)-N-(4-methoxyphenyl)-10-((methylamino)methyl)-9-(4-(phenylethynyl)phenyl)-1,6-diazabicyclo[6.2.0] decane-6-carboxamide], the concentration for a half-maximal effect (EC50) in the experiment with P. falciparum Dd2 (setting [2]) is 25 nM.
In the case of `OC[C@H]1[C@@H](c2ccc(-c3ccc(F)cc3)cc2)[C@@H]2CN(CCC(F)(F)F)CCCCN12` [Compound 9, ((8R,9S,10R)-9-(4′-fluoro-[1,1′-biphenyl]-4-yl)-6-(3,3,3-trifluoropropyl)-1,6-diazabicyclo[6.2.0]decan-10-yl)methanol], the EC50 in the experiment on P. falciparum Dd2 (setting [2]) is 518 nM.
`COc1ccc(NC(=O)N2C/C=C\CN3[C@H](CO)[C@H](c4ccc(C#Cc5ccccc5)cc4)[C@@H]3C2)cc1` [Compound 47, (8R,9R,10S)-10-(hydroxymethyl)-N-(4-methoxyphenyl)-9-[4-(2-phenylethynyl)phenyl]-1,6-diazabicyclo[6.2.0]dec-3-ene-6-carboxamide] displayed a concentration giving a half-maximal response (EC50) with P. falciparum Dd2 (setting [2]) of 23 nM.
In the experiment on P. falciparum Dd2 (setting [2]), `COc1ccc(NC(=O)N2CCCCN3[C@H](CO)[C@H](c4ccc(C#Cc5ccccc5)cn4)[C@@H]3C2)cc1` [Compound 81, (8R,9R,10S)-10-(hydroxymethyl)-N-(4-methoxyphenyl)-9-(5-(phenylethynyl)pyridin-2-yl)-1,6-diazabicyclo[6.2.0] decane-6-carboxamide] had a concentration giving a half-maximal response (EC50) of 34 nM.
As to `COc1ccc(NC(=O)N2CCCCN3[C@@H](COCCC(=O)O)[C@H](c4ccc(C#Cc5ccccc5)cc4)[C@@H]3C2)cc1` [Compound 86, 3-(((8R,9R,10R)-6-((4-methoxyphenyl)carbamoyl)-9-(4-(phenylethynyl)phenyl)-1,6-diazabicyclo[6.2.0]decan-10-yl)methoxy)propanoic acid], the EC50 in the experiment on P. falciparum Dd2 (setting [2]) was found to be 2 nM. This EC50 lies about 17-fold lower than the previous one.
For the compound `COc1ccc(NC(=O)N2CCN3[C@H](CO)[C@H](c4ccc(C#Cc5ccccc5)cc4)[C@@H]3C2)cc1` [Compound 34, (6R,7R,8S)-8-(hydroxymethyl)-N-(4-methoxyphenyl)-7-[4-(2-phenylethynyl)phenyl]-1,4-diazabicyclo[4.2.0] octane-4-carboxamide], in the experiment on P. falciparum Dd2 (setting [2]), the EC50 turned out to be 4660 nM. Against the preceding compound, the EC50 is about 2300-fold higher.
For `COc1ccc(NC(=O)N2CCCCN3[C@H](CO)[C@H](c4ccc(C#Cc5cccnc5)cc4)[C@@H]3C2)cc1` [Compound 60, (8R,9R,10S)-10-(hydroxymethyl)-N-(4-methoxyphenyl)-9-{4-[2-(pyridin-3-yl)ethynyl]phenyl}-1,6-diazabicyclo[6.2.0] decane-6-carboxamide], the EC50 with P. falciparum Dd2 (setting [2]) was 61 nM.
The compound `CC(C)CC#Cc1ccc([C@@H]2[C@H](CO)N3CCCCN(S(=O)(=O)Cc4ccccc4)C[C@@H]23)cc1` [Compound 19, ((8R,9S,10R)-6-(benzylsulfonyl)-9-(4-(4-methylpent-1-yn-1-yl)phenyl)-1,6-diazabicyclo[6.2.0]decan-10-yl)methanol] returned an EC50 in the experiment with P. falciparum Dd2 (setting [2]) of 805 nM.
In turn, `COc1ccc(NC(=O)N2CCCCN3[C@H](CO)[C@H](c4ccc(-c5cccnc5)cc4)[C@@H]3C2)cc1` [Compound 64, (8R,9R,10S)-10-(hydroxymethyl)-N-(4-methoxyphenyl)-9-[4-(pyridin-3-yl)phenyl]-1,6-diazabicyclo[6.2.0] decane-6-carboxamide] registered a 50% effective concentration (EC50) with P. falciparum Dd2 (setting [2]) of 1010 nM.
Compound `COc1ccc(NC(=O)N2CCCCN3[C@@H](CN)[C@H](c4ccc(C#Cc5ccccc5)cc4)[C@@H]3C2)cc1` [Compound 48, (8R,9S,10R)-10-(aminomethyl)-N-(4-methoxyphenyl)-9-[4-(2-phenylethynyl)phenyl]-1,6-diazabicyclo[6.2.0] decane-6-carboxamide] registered a half-maximal effective concentration (EC50) with P. falciparum Dd2 (setting [2]) of 36 nM.
In turn, `O=C(Nc1ccc(F)cc1)N1CCCCN2[C@H](CO)[C@H](c3ccc(C#Cc4ccccc4)cc3)[C@@H]2C1` [Compound 54, (8R,9R,10S)-N-(4-fluorophenyl)-10-(hydroxymethyl)-9-[4-(2-phenylethynyl)phenyl]-1,6-diazabicyclo[6.2.0] decane-6-carboxamide] came in with an EC50 with P. falciparum Dd2 of 156 nM.
The compound `COc1cccc(CN2CCCCN3[C@H](CO)[C@@H](c4ccc(C#Cc5cccnc5)cc4)[C@@H]3C2)c1` [Compound 1, ((8R,9S,10S)-6-(3-methoxybenzyl)-9-(4-(pyridin-3-ylethynyl)phenyl)-1,6-diazabicyclo[6.2.0]decan-10-yl)methanol] registered an EC50 with P. falciparum Dd2 (setting [2]) of 427 nM.
In the experiment with P. falciparum Dd2 (setting [2]), `O=C(Nc1ccccc1F)N1CCCCN2[C@@H](CO)[C@H](c3ccc(C#Cc4cccnc4)cc3)[C@@H]2C1` [Compound 10, (8R,9R,10R)-N-(2-fluorophenyl)-10-(hydroxymethyl)-9-(4-(pyridin-3-ylethynyl)phenyl)-1,6-diazabicyclo[6.2.0] decane-6-carboxamide] yielded an EC50 of 949 nM.
